Literature values as cited in patent publication US5814653A, “Pharmaceutical method using 6-substituted-1, 2, 3, 4-tetrahydro-9H-carbazoles and 7-substituted-10H -cyclohepta (7, 6-B) indoles” (priority 1997, dated 1998).

Tests used:
neurogenic inflammation = details: Neurology, 43(suppl. 3), S16-S20 (1993)
migraine headache = details: Humphrey, et al. (1990)
[1] = in vivo

Question: With CNS(=O)(=O)Cc1ccc2[nH]cc(CCN(C)C)c2c1.O=C(O)CCC(=O)O [Compound I, 3-[2-(dimethylamino)ethyl]-N-methyl-1H-indole-5-methanesulfonamide butane-1,4-dioate (1:1)] as the compound, how does the “blockade of neurogenic inflammation” value (neurogenic inflammation) read?
Answer: blocked

Question: What about the “effectiveness in the treatment of migraine headache” value (migraine headache) of the same compound?
Answer: effective in the treatment of migraine

Question: And the undesirable side effects [1]?
Answer: undesirable side effects, particularly vasoconstriction
